Results reported in patent US20230365576A1, “BRM Targeting Compounds And Associated Methods Of Use” (Prelude Therapeutics Incorporated, priority 2022, published 2023).

Tests used:
SMARCA4 = target: T1, SMARCA4 (Homo sapiens, UniProt P51532); assay: SMARCA4 HiBiT degradation assay in HeLa cells; type: cell-based; conditions: 18 hours; for Dmax: HeLa
T1 construct: SMARCA4-HiBiT knock-in Hela monoclonal cell (CS3023226) were purchased from Promega; host or cells: HeLa (CRISPR HiBiT knock-in monoclonal line, heterozygous)
T1 sequence (P51532 whole entry): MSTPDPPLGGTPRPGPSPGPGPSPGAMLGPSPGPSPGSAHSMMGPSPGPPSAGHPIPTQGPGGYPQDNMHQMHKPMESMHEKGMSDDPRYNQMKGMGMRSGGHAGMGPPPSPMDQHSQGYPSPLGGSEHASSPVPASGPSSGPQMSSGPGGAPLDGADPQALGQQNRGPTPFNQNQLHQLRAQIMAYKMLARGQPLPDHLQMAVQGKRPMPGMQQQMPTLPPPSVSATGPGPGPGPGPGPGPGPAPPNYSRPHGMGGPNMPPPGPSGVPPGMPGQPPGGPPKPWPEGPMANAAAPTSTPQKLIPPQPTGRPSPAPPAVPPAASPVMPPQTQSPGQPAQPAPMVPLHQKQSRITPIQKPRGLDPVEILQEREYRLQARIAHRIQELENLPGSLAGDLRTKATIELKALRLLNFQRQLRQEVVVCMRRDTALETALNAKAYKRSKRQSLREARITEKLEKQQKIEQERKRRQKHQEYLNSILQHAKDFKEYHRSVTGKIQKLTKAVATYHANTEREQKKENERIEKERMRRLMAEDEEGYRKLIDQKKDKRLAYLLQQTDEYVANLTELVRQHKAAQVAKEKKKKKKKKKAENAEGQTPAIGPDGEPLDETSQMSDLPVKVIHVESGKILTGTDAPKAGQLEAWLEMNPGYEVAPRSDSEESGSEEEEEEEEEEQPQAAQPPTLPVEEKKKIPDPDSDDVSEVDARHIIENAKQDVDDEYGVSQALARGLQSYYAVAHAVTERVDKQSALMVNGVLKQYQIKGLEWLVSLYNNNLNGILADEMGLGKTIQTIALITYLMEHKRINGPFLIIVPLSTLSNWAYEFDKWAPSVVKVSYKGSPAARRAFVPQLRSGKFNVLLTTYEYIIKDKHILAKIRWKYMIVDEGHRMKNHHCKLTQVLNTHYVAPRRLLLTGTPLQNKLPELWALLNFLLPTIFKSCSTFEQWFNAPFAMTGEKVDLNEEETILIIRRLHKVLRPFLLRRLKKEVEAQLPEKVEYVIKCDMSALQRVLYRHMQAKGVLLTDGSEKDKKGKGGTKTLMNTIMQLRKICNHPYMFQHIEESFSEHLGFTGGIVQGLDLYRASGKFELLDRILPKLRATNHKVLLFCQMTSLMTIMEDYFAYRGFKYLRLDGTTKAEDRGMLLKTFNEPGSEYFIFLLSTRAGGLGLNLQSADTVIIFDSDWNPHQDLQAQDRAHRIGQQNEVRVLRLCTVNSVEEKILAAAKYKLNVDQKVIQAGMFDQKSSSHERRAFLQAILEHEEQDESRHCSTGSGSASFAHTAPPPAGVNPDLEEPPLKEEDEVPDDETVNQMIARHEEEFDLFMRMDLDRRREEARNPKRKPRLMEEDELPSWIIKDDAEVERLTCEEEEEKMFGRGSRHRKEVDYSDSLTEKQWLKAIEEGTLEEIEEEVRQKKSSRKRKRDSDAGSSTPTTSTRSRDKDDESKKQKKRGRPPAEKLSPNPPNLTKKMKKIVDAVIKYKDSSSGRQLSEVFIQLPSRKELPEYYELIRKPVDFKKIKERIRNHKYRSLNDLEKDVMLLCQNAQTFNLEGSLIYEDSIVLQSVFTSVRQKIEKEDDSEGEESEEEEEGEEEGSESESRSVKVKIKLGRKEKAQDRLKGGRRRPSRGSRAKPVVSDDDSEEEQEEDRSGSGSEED
Procedure: (§1) Example A. SMARCA2 HiBiT and SMARCA4 HiBiT Degradation Assay
(§2) Preparation of SMARCA2/4-HiBiT Knock-In Cells
(§3) HiBiT peptide knock-in of SMARCA2 in LgBiT expressing HEK293T cells was performed by CRISPR-mediated tagging system as described Promega. The homozygous HiBiT knock-in on c-terminus SMARCA2 was confirmed by sanger sequence. SMARCA2-HiBiT knock-in Hela monoclonal cell (CS302366) and SMARCA4-HiBiT knock-in Hela monoclonal cell (CS3023226) were purchased from Promega. The heterozygous HiBiT-knock-in was confirmed by sanger sequence in both SMARCA2-HiBiT and SMARCA4-HiBiT monoclonal cells.
(§4) SMARCA2 HiBiT and SMARCA4 HiBiT Degradation Assay in HeLa Cells
(§5) Compounds were dissolved in DMSO to make 10 mM stock and 3-fold series dilutions were further conducted keeping the highest concentration 10 μM. NCIH1693 and NCIH520 cells were maintained in PRMI 1640 medium (Corning Cellgro, Catalog #:10-040-CV) supplemented with 10% v/v FBS (GE Healthcare, Catalog #: SH30910.03) by splitting 1:3 twice a week.
(§6) Dispense 10 ul aliquot of prepared Hela-SMARCA2-HiBiT or Hela-SMARCA4-HiBiT cells (1:1 ratio of cells:Trypan Blue (#1450013, Bio-Rad)) onto cell counting slide (#145-0011, Bio-Rad) and obtain cell density and cell viability using cell counter (TC20, Bio-Rad). Remove appropriate volume of resuspended cells from culture flask to accommodate 2500 cells/well @ 20 μL/well. Transfer Hela-HiBiT cells to 50 mL conical (#430290, Corning). Spin down at 1000 rpm for 5 min using tabletop centrifuge (SPINCHRON 15, Beckman). Discard supernatant and resuspend cell pellet in modified EMEM (#30-2003, ATCC) cell culture media containing 10% FBS (F2422-500ML, Sigma), and 1X Penicillin/Streptomycin (200 g/L) (30-002-CI, Corning) to a cell density of 125,000 cells/mL. Dispense 20 μL of resuspended Hela-HiBit cells per well in 384-well TC treated plate (#12-565-343, Thermo Scientific) using standard cassette (#50950372, Thermo Scientific) on Multidrop Combi (#5840310, Thermo Scientific) inside laminar flow cabinet. Dispense test compounds onto plates using digital liquid dispenser (D300E, Tecan). Incubate plates in humidified tissue culture incubator @37° C. for 18 hours. Add 20 μL of prepared Nano-Glo® HiBiT Lytic detection buffer (N3050, Promega) to each well of 384-well plate using small tube cassette (#24073295, Thermo Scientific) on Multidrop Combi, incubate @ RT for 30-60 min. Read plates on microplate reader (Envision 2105, PerkinElmer) using 384 well Ultra-Sensitive luminescence mode. Raw data files and compound information reports are swept into centralized data lake and deconvoluted using automated scripts designed by TetraScience, Inc. Data analysis, curve-fitting and reporting done in Dotmatics Informatics Suite using Screening Ultra module.

SMARCA2 = target: T2, SMARCA2 (Homo sapiens, UniProt P51531); assay: SMARCA2 HiBiT degradation assay in HeLa cells; type: cell-based; conditions: 18 hours; for DC50: read-out: SMARCA2 IC50; for Dmax: HeLa
T2 construct: SMARCA2-HiBiT knock-in Hela monoclonal cell (CS302366); host or cells: HeLa (CRISPR HiBiT knock-in monoclonal line, heterozygous)
T2 sequence (P51531 whole entry): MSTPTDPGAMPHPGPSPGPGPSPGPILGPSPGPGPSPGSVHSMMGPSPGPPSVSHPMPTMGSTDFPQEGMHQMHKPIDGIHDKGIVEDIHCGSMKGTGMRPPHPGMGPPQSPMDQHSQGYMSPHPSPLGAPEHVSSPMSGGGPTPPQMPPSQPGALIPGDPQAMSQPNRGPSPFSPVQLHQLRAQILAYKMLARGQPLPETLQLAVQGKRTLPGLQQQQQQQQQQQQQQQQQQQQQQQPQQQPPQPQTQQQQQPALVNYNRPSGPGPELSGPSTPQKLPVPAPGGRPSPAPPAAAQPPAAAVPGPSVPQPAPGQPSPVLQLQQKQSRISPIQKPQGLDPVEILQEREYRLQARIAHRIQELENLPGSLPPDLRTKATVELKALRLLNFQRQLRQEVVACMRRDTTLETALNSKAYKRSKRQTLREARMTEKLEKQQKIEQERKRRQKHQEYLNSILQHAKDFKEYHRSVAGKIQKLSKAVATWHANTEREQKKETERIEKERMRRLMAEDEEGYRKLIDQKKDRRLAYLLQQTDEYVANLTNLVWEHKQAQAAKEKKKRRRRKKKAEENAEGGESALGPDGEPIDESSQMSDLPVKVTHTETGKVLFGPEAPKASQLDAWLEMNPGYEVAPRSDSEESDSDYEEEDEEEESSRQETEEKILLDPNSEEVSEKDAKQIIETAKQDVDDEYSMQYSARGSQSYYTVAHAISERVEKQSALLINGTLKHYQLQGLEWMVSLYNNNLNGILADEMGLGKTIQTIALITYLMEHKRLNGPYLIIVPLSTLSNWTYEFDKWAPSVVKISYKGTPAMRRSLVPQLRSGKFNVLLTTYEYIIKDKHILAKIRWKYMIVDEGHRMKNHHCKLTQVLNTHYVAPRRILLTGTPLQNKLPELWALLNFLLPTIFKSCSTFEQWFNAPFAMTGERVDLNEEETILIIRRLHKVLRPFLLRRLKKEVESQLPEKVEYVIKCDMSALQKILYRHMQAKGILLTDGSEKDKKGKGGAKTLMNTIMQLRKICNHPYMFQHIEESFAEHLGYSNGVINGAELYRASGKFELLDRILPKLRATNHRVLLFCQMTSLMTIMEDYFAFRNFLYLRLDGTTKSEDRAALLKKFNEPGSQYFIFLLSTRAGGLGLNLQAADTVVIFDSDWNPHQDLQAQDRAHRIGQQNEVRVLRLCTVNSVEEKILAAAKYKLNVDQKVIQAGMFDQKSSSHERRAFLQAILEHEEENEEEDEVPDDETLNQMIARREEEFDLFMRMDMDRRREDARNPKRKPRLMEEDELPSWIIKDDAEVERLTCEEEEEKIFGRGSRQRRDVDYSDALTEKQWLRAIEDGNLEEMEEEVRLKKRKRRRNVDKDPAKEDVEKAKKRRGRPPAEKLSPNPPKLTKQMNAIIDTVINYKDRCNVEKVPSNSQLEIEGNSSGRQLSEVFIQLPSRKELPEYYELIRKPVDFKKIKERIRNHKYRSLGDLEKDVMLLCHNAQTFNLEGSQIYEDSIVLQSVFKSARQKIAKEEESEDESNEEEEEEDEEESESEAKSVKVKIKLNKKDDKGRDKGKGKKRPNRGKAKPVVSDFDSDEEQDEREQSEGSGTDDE
Procedure: as §1, §2, §3, §4, §5, §6

Row | SMILES | DC50 (SMARCA4) [nM] | Dmax (SMARCA4) [%] | DC50 (SMARCA2) [nM] | Dmax (SMARCA2) [%] | Dmax (SMARCA4; given as a number) [%] | SMARCA4 DMax % (SMARCA4) | SMARCA2 DMax % (SMARCA2)
1 | CC1(C)CN(CC2CCN(c3ccc4c(c3)C(=O)N(C3CCC(=O)NC3=O)C4)CC2)CCN1C(=O)N1CCN2c3cc(-c4cccc(Cl)c4O)nnc3NCC2(C)C1 (mixture of isomers) [Example 31, 3-(6-(4-((4-(2-(3-chloro-2-hydroxyphenyl)-6a-methyl-6,6a,7,8,9,10-hexahydro-5H-pyrazino[1′,2′:4,5]pyrazino[2,3-c]pyridazine-8-carbonyl)-3,3-dimethylpiperazin-1-yl)methyl)piperidin-1-yl)-1-oxoisoindolin-2-yl)piperidine-2,6-dione] | < 100 | < 50 | < 100 | 50 to 75 |  |  | 
2 | CC1(C)CN(CC2CCN(c3ccc4c(c3)C(=O)N([C@H]3CCC(=O)NC3=O)C4)CC2)CCN1C(=O)N1CCN2c3cc(-c4cc(F)cc(F)c4O)nnc3NC[C@H]2C1 [Example 19, (S)-3-(6-(4-((4-((S)-2-(3,5-difluoro-2-hydroxyphenyl)-6,6a,7,8,9,10-hexahydro-5H-pyrazino[1′,2′:4,5]pyrazino[2,3-c]pyridazine-8-carbonyl)-3,3-dimethylpiperazin-1-yl)methyl)piperidin-1-yl)-1-oxoisoindolin-2-yl)piperidine-2,6-dione] | < 100 |  | < 100 | > 75 | 51 |  | 
3 | CC1(C)CN(CC2CN(c3ccc4c(c3)C(=O)N(C3CCC(=O)NC3=O)C4)C2)CCN1C(=O)N1CCN2c3cc(-c4cc(F)cc(F)c4O)nnc3NC[C@H]2C1 (stereo partly drawn) [Example 23, 3-(6-(3-((4-((S)-2-(3,5-difluoro-2-hydroxyphenyl)-6,6a,7,8,9,10-hexahydro-5H-pyrazino[1′,2′:4,5]pyrazino[2,3-c]pyridazine-8-carbonyl)-3,3-dimethylpiperazin-1-yl)methyl)azetidin-1-yl)-1-oxoisoindolin-2-yl)piperidine-2,6-dione] | < 100 | < 50 | < 100 | > 75 |  |  | 
4 | CC1(C)CN(CC2CCN(c3ccc4c(c3)C(=O)N([C@H]3CCC(=O)NC3=O)C4)CC2)CCN1C(=O)N1CCN2c3cc(-c4cccc(F)c4O)nnc3NC[C@]2(C(F)F)C1 [Example 65, (S)-3-(6-(4-((4-((R)-6a-(difluoromethyl)-2-(3-fluoro-2-hydroxyphenyl)-6,6a,7,8,9,10-hexahydro-5H-pyrazino[1′,2′:4,5]pyrazino[2,3-c]pyridazine-8-carbonyl)-3,3-dimethylpiperazin-1-yl)methyl)piperidin-1-yl)-1-oxoisoindolin-2-yl)piperidine-2,6-dione] | < 100 | 50 to 75 | < 100 | > 75 |  |  | 
5 | C[C@@H]1C[C@H](CN2CCN(c3ccc4c(c3)C(=O)N([C@H]3CCC(=O)NC3=O)C4)CC2)C[C@H](C)N1C(=O)N1CCN2c3cc(-c4cccc(F)c4O)nnc3NC[C@@]2(C(F)F)C1 [Example 71, (S)-3-(6-(4-(((2R,4S,6S)-1-((S)-6a-(difluoromethyl)-2-(3-fluoro-2-hydroxyphenyl)-6,6a,7,8,9,10-hexahydro-5H-pyrazino[1′,2′:4,5]pyrazino[2,3-c]pyridazine-8-carbonyl)-2,6-dimethylpiperidin-4-yl)methyl)piperazin-1-yl)-1-oxoisoindolin-2-yl)piperidine-2,6-dione] | 100 to 1000 | < 50 | < 100 | > 75 |  |  | 
6 | CCC12CNc3nnc(-c4cccc(F)c4O)cc3N1CCN(C(=O)N1C[C@H](C)N(CC3CCN(c4ccc5c(c4)C(=O)N([C@H]4CCC(=O)NC4=O)C5)CC3)C[C@H]1C)C2 (single isomer, unassigned) [Example 78] | < 100 | 50 to 75 | < 100 | > 75 |  |  | 
7 | CCC12CNc3nnc(-c4cccc(F)c4O)cc3N1CCN(C(=O)C1(F)CCN(CC3CCN(c4ccc5c(c4)C(=O)N([C@H]4CCC(=O)NC4=O)C5)CC3)CC1)C2 (single isomer, unassigned) [Example 108] | < 100 |  | < 100 |  |  | A (A=Dmax>75%) | A (A=Dmax>75%)
8 | CC12CNc3nnc(-c4cccc(F)c4O)cc3N1CCN(C[C@H]1CC[C@H](CN3CCN(c4ccc5c(c4)C(=O)N([C@H]4CCC(=O)NC4=O)C5)CC3)CC1)C2 (single isomer, unassigned) [Example 117] | < 100 | 50 to 75 | < 100 | > 75 |  |  | 
9 | C[C@H]1CN(CC2CCN(c3ccc4c(c3)C(=O)N([C@H]3CCC(=O)NC3=O)C4)CC2)C[C@H](C)N1C(=O)N1CCN2c3cc(-c4cccc(F)c4O)nnc3NC[C@]2(C(F)F)C1 [Example 66, (S)-3-(6-(4-(((3S,5S)-4-((R)-6a-(difluoromethyl)-2-(3-fluoro-2-hydroxyphenyl)-6,6a,7,8,9,10-hexahydro-5H-pyrazino[1′,2′:4,5]pyrazino[2,3-c]pyridazine-8-carbonyl)-3,5-dimethylpiperazin-1-yl)methyl)piperidin-1-yl)-1-oxoisoindolin-2-yl)piperidine-2,6-dione] | < 100 | > 75 | < 100 | > 75 |  |  | 
10 | CCC12CNc3nnc(-c4cccc(F)c4O)cc3N1CCN(C(=O)N1CCN(CC3CCN(c4ccc5c(c4)C(=O)N(C4CCC(=O)NC4=O)C5)CC3)CC1(C)C)C2 (single isomer, unassigned) [Example 79, 3-(6-(4-((4-(6a-ethyl-2-(3-fluoro-2-hydroxyphenyl)-6,6a,7,8,9,10-hexahydro-5H-pyrazino-[1′,2′:4,5]pyrazino[2,3-c]pyridazine-8-carbonyl)-3,3-dimethylpiperazin-1-yl)methyl)-piperidin-1-yl)-1-oxoisoindolin-2-yl)piperidine-2,6-dione] | > 1000 | < 50 | < 100 | > 75 |  |  | 
11 | CCC12CNc3nnc(-c4cccc(Cl)c4O)cc3N1CCN(C(=O)N1C[C@H](C)N(CC3CCN(c4ccc5c(c4)C(=O)N([C@H]4CCC(=O)NC4=O)C5)CC3)C[C@H]1C)C2 (single isomer, unassigned) [Example 77] | < 100 | 50 to 75 | < 100 | > 75 |  |  | 
12 | CC1(C)CC(CN2CCN(c3ccc4c(c3)C(=O)N([C@H]3CCC(=O)NC3=O)C4)CC2)CCN1C(=O)N1CCN2c3cc(-c4cccc(F)c4O)nnc3NCC2(C)C1 (single isomer, unassigned) [Example 124] | < 100 |  | < 100 |  |  | B (B=50%<Dmax≤75%) | A (A=Dmax>75%)
13 | CCC12CNc3nnc(-c4cccc(F)c4O)cc3N1CCN(C(=O)N1[C@H](C)CN(CC3CCN(c4ccc5c(c4)C(=O)N(C4CCC(=O)NC4=O)C5)CC3)C[C@@H]1C)C2 (single isomer, unassigned) [Example 88] | < 100 |  | < 100 |  |  | A (A=Dmax>75%) | A (A=Dmax>75%)
14 | C[C@@H]1CN(CC2CCN(c3ccc4c(c3)C(=O)N(C3CCC(=O)NC3=O)C4)CC2)C[C@H](C)N1C(=O)N1CCN2c3cc(-c4cc(F)cc(F)c4O)nnc3NC[C@H]2C1 (stereo partly drawn) [Example 15, 3-(6-(4-(((3R,5S)-4-((S)-2-(3,5-difluoro-2-hydroxyphenyl)-6,6a,7,8,9,10-hexahydro-5H-pyrazino[1′,2′:4,5]pyrazino[2,3-c]pyridazine-8-carbonyl)-3,5-dimethylpiperazin-1-yl)methyl)piperidin-1-yl)-1-oxoisoindolin-2-yl)piperidine-2,6-dione] | < 100 | 50 to 75 | < 100 | > 75 |  |  | 
15 | CCC12CNc3nnc(-c4cc(F)cc(F)c4O)cc3N1CCN(C(=O)N1[C@H](C)CN(CC3CCN(c4ccc5c(c4)C(=O)N(C4CCC(=O)NC4=O)C5)CC3)C[C@@H]1C)C2 (single isomer, unassigned) [Example 61] | < 100 |  | < 100 |  |  |  | 
